In ChEMBL document CHEMBL5678818, “Discovery of potent SOS1 inhibitors that block RAS activation via disruption of the RAS-SOS1 interaction” (Proc Natl Acad Sci U S A, 2019):

Assays:
[1] = biological target: T1, Serine/threonine-protein kinase DCLK1 (Homo sapiens) (UniProt O15075); test: Inhibition of DCAMKL1 (unknown origin) assessed as residual activity at 100 nM by KINOMEscan analysis relative to control
T1 sequence (whole entry): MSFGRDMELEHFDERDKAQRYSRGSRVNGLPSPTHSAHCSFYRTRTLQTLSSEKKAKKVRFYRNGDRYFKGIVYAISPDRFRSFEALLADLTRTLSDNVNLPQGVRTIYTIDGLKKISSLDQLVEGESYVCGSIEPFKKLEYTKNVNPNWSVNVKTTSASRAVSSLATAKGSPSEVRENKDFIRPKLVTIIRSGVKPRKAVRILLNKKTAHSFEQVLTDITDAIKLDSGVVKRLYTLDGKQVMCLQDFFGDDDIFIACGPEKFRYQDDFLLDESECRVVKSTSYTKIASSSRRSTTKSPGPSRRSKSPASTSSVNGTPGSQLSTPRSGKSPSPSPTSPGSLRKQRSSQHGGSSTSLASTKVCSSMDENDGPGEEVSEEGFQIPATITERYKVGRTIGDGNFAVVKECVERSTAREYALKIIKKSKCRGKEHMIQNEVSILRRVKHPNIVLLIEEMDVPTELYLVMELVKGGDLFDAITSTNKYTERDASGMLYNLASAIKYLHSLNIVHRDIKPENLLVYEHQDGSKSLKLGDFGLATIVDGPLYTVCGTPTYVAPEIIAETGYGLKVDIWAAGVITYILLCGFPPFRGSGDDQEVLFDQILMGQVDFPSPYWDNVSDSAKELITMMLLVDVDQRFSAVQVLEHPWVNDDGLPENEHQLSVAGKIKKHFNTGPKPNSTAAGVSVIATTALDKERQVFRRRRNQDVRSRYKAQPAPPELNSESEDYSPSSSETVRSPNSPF

[2] = biological target: T2, Mitogen-activated protein kinase kinase kinase 5 (Homo sapiens) (UniProt Q99683); test: Inhibition of ASK1 (unknown origin) assessed as residual activity at 100 nM by KINOMEscan analysis relative to control
T2 sequence (whole entry): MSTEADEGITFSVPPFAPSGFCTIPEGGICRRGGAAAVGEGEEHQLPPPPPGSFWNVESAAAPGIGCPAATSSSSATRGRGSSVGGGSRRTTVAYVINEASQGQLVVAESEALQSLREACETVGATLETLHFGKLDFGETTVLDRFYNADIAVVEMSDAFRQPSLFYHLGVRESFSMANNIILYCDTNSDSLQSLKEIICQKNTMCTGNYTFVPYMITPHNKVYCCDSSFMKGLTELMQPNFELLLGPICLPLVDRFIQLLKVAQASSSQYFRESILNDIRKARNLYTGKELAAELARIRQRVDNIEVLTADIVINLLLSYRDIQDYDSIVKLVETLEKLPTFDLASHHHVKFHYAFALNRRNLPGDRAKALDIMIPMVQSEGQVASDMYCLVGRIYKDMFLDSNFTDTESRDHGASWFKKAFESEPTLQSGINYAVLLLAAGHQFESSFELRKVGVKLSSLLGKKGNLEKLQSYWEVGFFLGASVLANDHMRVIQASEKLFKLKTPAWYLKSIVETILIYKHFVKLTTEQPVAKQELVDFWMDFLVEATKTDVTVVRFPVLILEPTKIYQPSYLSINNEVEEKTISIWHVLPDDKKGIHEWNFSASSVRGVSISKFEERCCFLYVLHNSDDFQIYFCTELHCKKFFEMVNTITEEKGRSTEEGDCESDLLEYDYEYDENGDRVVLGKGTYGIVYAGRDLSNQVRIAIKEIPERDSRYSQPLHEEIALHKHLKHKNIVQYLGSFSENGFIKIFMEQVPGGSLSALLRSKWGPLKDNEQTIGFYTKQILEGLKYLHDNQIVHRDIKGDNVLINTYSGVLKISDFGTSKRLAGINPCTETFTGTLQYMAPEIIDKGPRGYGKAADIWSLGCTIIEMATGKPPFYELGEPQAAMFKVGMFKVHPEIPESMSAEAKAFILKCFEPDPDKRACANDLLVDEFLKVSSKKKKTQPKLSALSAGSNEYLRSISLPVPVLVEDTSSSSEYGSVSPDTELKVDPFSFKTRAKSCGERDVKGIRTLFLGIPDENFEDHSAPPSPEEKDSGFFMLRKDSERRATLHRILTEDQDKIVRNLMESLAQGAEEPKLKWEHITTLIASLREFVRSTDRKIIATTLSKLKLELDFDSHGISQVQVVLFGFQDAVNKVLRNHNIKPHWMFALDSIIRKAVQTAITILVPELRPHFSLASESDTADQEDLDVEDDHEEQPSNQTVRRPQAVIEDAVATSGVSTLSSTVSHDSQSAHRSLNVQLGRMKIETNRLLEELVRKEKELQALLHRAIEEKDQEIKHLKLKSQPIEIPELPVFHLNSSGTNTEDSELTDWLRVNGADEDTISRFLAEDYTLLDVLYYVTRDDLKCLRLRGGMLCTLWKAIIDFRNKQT

[3] = biological target: Aurora kinase B (Homo sapiens) (UniProt Q96GD4); test: Inhibition of AURKB (unknown origin) assessed as residual activity at 100 nM by KINOMEscan analysis relative to control
Sequence of Aurora kinase B (Homo sapiens) (Q96GD4 whole entry): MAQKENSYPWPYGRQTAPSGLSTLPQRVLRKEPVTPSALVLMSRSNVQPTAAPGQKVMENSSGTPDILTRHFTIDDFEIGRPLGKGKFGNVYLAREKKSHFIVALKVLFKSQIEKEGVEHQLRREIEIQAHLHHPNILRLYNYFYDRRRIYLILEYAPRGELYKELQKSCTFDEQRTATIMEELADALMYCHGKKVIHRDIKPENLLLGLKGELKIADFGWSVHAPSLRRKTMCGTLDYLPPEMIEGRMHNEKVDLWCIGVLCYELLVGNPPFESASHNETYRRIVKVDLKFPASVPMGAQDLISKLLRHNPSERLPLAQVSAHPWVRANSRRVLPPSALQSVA

[4] = biological target: T3, Inhibitor of nuclear factor kappa-B kinase subunit alpha (Homo sapiens) (UniProt O15111); test: Inhibition of IKK-alpha (unknown origin) assessed as residual activity at 100 nM by KINOMEscan analysis relative to control
T3 sequence (whole entry): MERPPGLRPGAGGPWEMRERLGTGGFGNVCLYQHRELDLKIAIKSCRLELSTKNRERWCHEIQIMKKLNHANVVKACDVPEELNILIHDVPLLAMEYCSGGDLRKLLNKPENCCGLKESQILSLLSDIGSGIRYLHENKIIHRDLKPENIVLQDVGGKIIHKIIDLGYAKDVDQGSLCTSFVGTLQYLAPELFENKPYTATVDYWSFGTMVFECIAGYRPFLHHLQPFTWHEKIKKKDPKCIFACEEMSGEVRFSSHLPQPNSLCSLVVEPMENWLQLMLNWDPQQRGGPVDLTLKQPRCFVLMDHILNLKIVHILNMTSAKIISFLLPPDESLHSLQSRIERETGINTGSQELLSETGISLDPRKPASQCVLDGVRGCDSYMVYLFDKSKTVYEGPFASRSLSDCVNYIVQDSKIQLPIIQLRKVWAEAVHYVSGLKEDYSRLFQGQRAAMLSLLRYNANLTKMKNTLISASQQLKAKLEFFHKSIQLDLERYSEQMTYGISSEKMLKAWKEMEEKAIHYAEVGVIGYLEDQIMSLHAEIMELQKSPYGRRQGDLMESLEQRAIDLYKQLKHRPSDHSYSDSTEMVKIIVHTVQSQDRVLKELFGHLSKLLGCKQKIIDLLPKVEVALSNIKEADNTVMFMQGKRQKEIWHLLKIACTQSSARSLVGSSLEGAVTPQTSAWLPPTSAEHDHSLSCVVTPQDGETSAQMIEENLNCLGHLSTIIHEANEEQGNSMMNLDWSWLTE

Work on `COc1cc2ncnc(N[C@H](C)c3cccc4ccccc34)c2cc1OC` yielded an Activity [1] of 86%, an Activity [2] of 70% and an Activity [3] of 96%. The Activity [4] was 79%.
